Source: ChEMBL document CHEMBL6134930, “Discovery of AB801, a Potent and Selective Inhibitor of AXL Receptor Tyrosine Kinase for Use in Cancer Therapy” (J Med Chem, 2025)
The source made the active and inactive calls. The rule behind the calls is not given here.

What was measured:
786-0 = test: Anti-tumor activity against human 786-0 cells xenografted in mouse model assessed as tumor growth inhibition at 40 mg/kg, po once daily for 15 days; format: functional, organism-based; details: time 15.0 day
[1] = Efflux ratio in human Caco-2 cells; format: ADME, cell-based
[2] = Metabolic stability in human hepatocytes assessed as intrinsic clearance measured per 10^6 cells; format: ADME, cell-based, Hepatocyte; details: read-out: CLH
CYP2D6 = CYP2D6 (Homo sapiens, UniProt P10635); test: Time dependent inhibition of CYP2D6 (unknown origin) at 30 uM measured after 30 mins relative to control; format: ADME; details: read-out: TDI
CYP3A4 [3] = biological target: T1, CYP3A4 (Homo sapiens, UniProt P08684); test: Time dependent inhibition of CYP3A4 (unknown origin) using midazolam as substrate at 30 uM measured after 30 mins relative to control; format: ADME; details: probe midazolam, read-out: TDI
[4] = biological target: T2, Tyrosine-protein kinase receptor UFO (Homo sapiens, UniProt P30530); test: Inhibition of autophosphorylation AXL (unknown origin) expressed in HEK293 cells assessed as NanoLuc activity associated with phosphorylated proteins measured after 1 hr incubation by intracellular pAXL-ELISA; format: cell-based
T2 sequence (P30530 whole entry): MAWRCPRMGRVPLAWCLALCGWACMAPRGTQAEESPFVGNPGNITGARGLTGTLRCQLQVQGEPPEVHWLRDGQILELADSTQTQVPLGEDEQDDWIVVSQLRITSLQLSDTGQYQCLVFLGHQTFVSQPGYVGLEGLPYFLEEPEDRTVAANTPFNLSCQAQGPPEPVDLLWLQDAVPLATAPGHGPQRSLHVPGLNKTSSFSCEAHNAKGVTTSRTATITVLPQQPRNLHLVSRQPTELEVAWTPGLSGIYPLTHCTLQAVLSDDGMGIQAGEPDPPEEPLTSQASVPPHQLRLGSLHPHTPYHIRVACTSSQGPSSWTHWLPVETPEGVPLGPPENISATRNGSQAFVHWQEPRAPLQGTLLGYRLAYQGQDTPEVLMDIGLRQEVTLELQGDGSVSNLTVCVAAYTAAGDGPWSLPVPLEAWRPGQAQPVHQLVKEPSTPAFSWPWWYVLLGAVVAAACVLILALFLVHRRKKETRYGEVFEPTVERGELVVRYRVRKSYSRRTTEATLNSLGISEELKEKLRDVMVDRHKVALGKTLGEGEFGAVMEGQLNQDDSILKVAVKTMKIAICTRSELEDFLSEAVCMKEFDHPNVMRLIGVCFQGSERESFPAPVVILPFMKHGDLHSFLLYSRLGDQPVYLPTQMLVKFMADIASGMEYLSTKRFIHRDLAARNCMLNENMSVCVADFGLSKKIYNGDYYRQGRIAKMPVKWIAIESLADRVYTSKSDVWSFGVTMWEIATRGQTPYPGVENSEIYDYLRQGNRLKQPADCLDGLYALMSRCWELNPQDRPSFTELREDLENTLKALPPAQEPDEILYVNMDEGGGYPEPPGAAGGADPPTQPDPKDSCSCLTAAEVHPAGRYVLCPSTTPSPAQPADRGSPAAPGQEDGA

CYP2C19 = CYP2C19 (Homo sapiens, UniProt P33261); test: Time dependent inhibition of CYP2C19 (unknown origin) at 30 uM measured after 30 mins relative to control; format: ADME; details: read-out: TDI
[5] = Clearance in cynomolgus monkey at 0.5 mg/kg, iv measured up to 24 hrs by LC-MS/MS analysis; format: ADME, organism-based, Macaca fascicularis; details: in vivo
hERG (KCNH2) = hERG (KCNH2) (Homo sapiens, UniProt Q12809); test: Inhibition of hERG at 10 uM by high throughput cell based patch clamp assay; format: toxicity
[6] = Clearance in Beagle dog at 0.5 mg/kg, iv measured up to 24 hrs by LC-MS/MS analysis; format: ADME, organism-based, Canis lupus familiaris; details: in vivo
CYP1A2 = biological target: T3, CYP1A2 (Homo sapiens, UniProt P05177); test: Time dependent inhibition of CYP1A2 (unknown origin) at 30 uM measured after 30 mins relative to control; format: ADME; details: read-out: TDI
T3 sequence (P05177 whole entry): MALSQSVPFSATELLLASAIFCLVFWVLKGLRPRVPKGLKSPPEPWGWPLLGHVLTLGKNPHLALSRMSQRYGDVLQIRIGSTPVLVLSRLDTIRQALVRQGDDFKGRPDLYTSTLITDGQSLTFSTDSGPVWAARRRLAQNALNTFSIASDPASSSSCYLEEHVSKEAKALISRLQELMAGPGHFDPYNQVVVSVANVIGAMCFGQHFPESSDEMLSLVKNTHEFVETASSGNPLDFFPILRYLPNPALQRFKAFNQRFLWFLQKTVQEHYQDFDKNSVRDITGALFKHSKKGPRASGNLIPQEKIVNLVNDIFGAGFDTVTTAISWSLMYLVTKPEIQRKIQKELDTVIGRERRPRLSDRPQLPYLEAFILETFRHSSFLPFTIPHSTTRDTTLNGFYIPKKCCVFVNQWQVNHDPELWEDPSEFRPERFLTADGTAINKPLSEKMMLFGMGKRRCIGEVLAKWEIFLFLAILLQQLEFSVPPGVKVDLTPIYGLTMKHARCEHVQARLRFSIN

[7] = AUCinf in Sprague-Dawley rat at 2 mg/kg, po measured up to 8 hrs by LC-MS/MS analysis; format: ADME, organism-based; details: in vivo
[8] = Apparent permeability of compound from apical to basolateral side in human Caco-2 cells; format: ADME, cell-based; details: read-out: permeability
CYP2C8 = biological target: T4, CYP2C8 (Homo sapiens, UniProt P10632); test: Time dependent inhibition of CYP2C8 (unknown origin) at 30 uM measured after 30 mins relative to control; format: ADME; details: read-out: TDI
T4 sequence (P10632 whole entry): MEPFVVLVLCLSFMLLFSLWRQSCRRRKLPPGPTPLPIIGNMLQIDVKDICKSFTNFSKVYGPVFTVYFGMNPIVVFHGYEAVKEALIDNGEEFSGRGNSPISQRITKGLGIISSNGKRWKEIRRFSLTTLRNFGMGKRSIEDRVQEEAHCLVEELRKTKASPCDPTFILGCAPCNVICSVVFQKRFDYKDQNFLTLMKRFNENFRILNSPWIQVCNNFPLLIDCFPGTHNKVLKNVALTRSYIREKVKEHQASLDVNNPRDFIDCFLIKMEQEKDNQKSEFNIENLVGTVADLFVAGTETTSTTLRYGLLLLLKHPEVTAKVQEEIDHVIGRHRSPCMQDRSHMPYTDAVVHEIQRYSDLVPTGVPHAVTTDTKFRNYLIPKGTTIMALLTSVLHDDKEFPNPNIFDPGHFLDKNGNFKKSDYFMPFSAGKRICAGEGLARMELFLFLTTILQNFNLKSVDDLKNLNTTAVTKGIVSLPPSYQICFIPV

CYP3A4 [9] = biological target: T1, CYP3A4; test: Time dependent inhibition of CYP3A4 (unknown origin) using testosterone as substrate at 30 uM measured after 30 mins relative to control; format: ADME; details: probe testosterone, read-out: TDI
[10] = biological target: T2, Tyrosine-protein kinase receptor UFO; test: Inhibition of human AXL measured after 150 mins by ATP-competitive HTRF based biochemical assay
[11] = Clearance in Sprague-Dawley rat at 0.5 mg/kg, iv measured up to 24 hrs by LC-MS/MS analysis; format: ADME, organism-based; details: in vivo
CYP2B6 = biological target: T5, CYP2B6 (Homo sapiens, UniProt P20813); test: Time dependent inhibition of CYP2B6 (unknown origin) at 30 uM measured after 30 mins relative to control; format: ADME; details: read-out: TDI
T5 sequence (P20813 whole entry): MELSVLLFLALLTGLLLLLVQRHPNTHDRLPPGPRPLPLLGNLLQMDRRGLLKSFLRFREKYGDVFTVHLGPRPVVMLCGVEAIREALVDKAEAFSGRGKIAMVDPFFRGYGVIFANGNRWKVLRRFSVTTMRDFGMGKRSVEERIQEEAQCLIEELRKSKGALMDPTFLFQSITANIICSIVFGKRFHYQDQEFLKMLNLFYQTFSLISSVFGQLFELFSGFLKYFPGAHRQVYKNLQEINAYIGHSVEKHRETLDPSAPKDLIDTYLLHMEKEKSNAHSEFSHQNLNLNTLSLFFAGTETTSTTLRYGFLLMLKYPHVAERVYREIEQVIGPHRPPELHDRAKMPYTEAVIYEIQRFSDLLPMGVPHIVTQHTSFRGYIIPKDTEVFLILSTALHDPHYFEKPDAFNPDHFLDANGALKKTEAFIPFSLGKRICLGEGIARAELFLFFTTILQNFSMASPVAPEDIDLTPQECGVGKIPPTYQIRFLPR

CYP2C9 = CYP2C9 (Homo sapiens, UniProt P11712); test: Time dependent inhibition of CYP2C9 (unknown origin) at 30 uM measured after 30 mins relative to control; format: ADME; details: read-out: TDI
[12] = Clearance in CD-1 mouse at 0.5 mg/kg, iv measured up to 24 hrs by LC-MS/MS analysis; format: ADME, organism-based; details: in vivo
[13] = Metabolic stability in rat hepatocytes assessed as intrinsic clearance measured per 10^6 cells; format: ADME, cell-based, Hepatocyte; details: read-out: CLH

T1 sequence (P08684 whole entry): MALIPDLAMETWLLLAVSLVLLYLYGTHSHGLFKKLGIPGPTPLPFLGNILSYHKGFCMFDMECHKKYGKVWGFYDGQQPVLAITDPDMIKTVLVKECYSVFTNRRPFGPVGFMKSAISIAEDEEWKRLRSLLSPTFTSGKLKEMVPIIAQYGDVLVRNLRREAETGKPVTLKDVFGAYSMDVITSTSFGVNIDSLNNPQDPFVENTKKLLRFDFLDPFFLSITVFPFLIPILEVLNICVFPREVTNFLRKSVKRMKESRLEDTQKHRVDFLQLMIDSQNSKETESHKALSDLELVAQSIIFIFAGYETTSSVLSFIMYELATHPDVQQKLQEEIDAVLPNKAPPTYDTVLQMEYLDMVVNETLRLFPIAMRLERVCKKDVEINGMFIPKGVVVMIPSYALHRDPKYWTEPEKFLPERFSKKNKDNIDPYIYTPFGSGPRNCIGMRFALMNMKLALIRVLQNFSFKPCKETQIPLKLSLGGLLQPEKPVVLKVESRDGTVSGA
hERG (KCNH2), sequence (Q12809 whole entry): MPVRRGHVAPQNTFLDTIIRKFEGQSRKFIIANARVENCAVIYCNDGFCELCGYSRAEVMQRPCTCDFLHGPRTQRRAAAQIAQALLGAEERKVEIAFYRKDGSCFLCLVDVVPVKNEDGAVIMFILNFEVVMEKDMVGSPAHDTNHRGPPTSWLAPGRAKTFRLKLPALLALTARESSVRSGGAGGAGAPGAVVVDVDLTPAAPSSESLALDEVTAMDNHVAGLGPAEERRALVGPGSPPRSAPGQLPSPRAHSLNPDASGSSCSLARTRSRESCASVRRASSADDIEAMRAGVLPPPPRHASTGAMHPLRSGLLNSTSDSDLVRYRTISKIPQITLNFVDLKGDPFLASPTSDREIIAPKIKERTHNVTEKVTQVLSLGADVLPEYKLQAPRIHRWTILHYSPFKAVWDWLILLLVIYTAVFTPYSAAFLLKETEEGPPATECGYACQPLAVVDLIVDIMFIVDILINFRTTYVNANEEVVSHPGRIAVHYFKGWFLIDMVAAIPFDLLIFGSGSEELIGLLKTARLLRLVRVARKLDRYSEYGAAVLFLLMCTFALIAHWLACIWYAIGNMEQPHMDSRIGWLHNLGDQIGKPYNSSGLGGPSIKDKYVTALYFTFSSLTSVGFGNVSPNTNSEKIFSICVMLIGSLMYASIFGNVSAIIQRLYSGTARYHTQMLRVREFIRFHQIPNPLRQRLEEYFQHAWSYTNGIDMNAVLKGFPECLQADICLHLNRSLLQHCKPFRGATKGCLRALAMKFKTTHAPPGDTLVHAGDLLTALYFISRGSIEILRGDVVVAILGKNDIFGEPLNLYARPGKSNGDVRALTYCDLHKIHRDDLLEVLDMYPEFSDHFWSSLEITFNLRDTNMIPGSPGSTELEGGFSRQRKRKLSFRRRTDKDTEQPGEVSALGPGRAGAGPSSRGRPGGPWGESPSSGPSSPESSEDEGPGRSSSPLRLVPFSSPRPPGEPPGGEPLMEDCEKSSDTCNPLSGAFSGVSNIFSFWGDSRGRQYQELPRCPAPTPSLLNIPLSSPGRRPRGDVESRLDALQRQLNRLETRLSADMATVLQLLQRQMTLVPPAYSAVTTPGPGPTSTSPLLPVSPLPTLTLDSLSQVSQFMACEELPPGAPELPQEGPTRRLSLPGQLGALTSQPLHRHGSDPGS
CYP2C9, sequence (P11712 whole entry): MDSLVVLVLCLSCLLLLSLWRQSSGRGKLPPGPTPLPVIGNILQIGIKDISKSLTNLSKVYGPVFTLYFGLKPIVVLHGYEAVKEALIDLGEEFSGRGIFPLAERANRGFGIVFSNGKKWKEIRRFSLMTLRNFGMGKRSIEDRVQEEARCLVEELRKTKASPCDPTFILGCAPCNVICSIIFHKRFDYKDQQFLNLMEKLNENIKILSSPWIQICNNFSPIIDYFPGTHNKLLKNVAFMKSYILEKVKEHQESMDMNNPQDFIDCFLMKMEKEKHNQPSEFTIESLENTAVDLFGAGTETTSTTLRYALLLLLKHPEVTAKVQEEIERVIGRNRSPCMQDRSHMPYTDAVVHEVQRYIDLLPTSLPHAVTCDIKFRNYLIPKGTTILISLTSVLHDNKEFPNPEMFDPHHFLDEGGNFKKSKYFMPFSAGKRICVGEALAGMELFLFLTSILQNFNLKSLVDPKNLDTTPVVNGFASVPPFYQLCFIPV
CYP2D6, sequence (P10635 whole entry): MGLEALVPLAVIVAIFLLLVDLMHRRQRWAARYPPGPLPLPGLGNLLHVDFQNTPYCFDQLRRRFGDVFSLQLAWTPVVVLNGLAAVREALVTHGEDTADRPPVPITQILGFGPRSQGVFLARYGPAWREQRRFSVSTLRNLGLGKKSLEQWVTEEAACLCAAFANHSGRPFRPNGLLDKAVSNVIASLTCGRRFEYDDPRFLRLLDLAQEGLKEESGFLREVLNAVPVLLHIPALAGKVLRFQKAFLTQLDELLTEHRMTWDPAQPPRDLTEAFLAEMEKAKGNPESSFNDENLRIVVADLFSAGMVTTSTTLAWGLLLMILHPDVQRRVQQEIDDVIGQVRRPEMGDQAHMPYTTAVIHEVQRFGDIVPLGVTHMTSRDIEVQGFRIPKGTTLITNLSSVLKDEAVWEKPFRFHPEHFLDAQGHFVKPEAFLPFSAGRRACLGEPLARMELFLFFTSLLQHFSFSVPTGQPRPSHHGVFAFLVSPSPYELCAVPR
CYP2C19, sequence (P33261 whole entry): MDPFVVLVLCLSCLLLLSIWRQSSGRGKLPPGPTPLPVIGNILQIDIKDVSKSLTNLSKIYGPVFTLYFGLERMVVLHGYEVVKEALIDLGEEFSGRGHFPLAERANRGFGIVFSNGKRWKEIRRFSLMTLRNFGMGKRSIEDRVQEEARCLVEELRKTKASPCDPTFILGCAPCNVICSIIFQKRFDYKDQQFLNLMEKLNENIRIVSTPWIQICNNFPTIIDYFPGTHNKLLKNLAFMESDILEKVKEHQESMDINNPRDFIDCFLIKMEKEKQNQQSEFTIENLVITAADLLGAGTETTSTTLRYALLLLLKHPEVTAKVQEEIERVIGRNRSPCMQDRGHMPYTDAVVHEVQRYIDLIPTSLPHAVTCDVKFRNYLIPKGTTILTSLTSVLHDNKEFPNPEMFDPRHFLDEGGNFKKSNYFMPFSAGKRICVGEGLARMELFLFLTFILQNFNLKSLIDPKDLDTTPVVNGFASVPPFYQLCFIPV

SMILES: CCN(CC)CCNC(=O)c1c(C)[nH]c(/C=C2\C(=O)Nc3ccc(F)cc32)c1C
- Activity (786-0): inactive

SMILES: Cc1cccnc1-c1ccc(-c2n[nH]c3ncc(-c4ccc5c(c4)CC[C@@H](N4C6COCC4C6)CC5)cc23)cc1
- efflux ratio [1]: 1
- hepatocyte CLint [2]: < 2.7 µL/min/1e6 cells
- inhibition at 0.5 h, 30 µM (CYP2D6): 2.4%
- inhibition at 0.5 h, 30 µM (CYP3A4 [3]): 31%
- IC50 [4]: 65 nM
- inhibition at 0.5 h, 30 µM (CYP2C19): 23%
- clearance [5]: 6.83 mL/min/kg
- inhibition at 10 µM (hERG (KCNH2)): 23%
- clearance [6]: 25 mL/min/kg
- inhibition at 0.5 h, 30 µM (CYP1A2): 24%
- AUC(0-inf) [7]: 3000 ng·h/mL
- Papp A→B [8]: 0.96 ×10⁻⁶ cm/s
- inhibition at 0.5 h, 30 µM (CYP2C8): 14%
- inhibition at 0.5 h, 30 µM (CYP3A4 [9]): 50%
- IC50 [10]: 2.4 nM
- clearance [11]: 2.67 mL/min/kg
- inhibition at 0.5 h, 30 µM (CYP2B6): 22%
- inhibition at 0.5 h, 30 µM (CYP2C9): 0%
- clearance [12]: 5.33 mL/min/kg
- hepatocyte CLint [13]: 2.7 µL/min/1e6 cells
